Molecular target: T1, DLK (Homo sapiens, UniProt Q12852)
T1 sequence (Q12852 1-520): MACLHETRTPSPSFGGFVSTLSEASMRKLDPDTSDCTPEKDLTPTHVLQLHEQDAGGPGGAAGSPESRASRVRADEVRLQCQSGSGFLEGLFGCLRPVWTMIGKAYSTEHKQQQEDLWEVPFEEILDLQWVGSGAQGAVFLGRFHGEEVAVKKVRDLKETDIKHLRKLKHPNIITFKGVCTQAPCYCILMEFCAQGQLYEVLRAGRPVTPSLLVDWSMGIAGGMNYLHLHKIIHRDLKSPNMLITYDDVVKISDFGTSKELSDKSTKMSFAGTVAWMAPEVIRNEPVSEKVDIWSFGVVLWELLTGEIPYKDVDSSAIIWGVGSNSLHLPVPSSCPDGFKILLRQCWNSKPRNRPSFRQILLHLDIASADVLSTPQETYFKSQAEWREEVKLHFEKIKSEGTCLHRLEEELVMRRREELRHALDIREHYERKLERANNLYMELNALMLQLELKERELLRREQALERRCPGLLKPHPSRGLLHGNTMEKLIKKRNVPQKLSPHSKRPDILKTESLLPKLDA
Conditions: read-out: DLK (Ki) μM; TR-FRET; 5 nM GST-tagged DLK (catalytic domain aa 1-520), 40 nM HIS-MKK4 K131M substrate, 30 μM ATP, 60 minutes

Row | SMILES | Ki [µM]
1 | CC(=O)N1CCC(c2cc(-c3cnc4[nH]cc(C)c4c3)nn2C(C)C)CC1 [Compound 49, 1-(4-(1-isopropyl-3-(3-methyl-1H-pyrrolo[2,3-b]pyridin-5-yl)-1H-pyrazol-5-yl)piperidin-1-yl)ethanone] | 0.019
2 | CC(=O)N1CCC(c2cc(-c3cnc4[nH]cc(C(F)(F)F)c4c3)nn2C(C)C)CC1 [Compound 50, 1-(4-(1-isopropyl-3-(3-(trifluorometh-yl)-1H-pyrrolo[2,3-b]pyridin-5-yl)-1H-pyrazol-5-yl)piperidin-1-yl)etha-none] | 0.0037
3 | FC(F)(F)c1c[nH]c2ncc(-c3cc(C4CN(C5COC5)C4)n(C4CCOC4)n3)cc12 (centres unmarked) [Compound 55, 5-(5-(1-(oxetan-3-yl)azetidin-3-yl)-1-(tetrahydrofuran-3-yl)-1H-pyrazol-3-yl)-3-(trifluoromethyl)-1H-pyrrolo[2,3-b]pyridine] | 0.019
4 | FC1(F)CCC(n2nc(-c3cnc4[nH]cc(C(F)(F)F)c4c3)cc2C2CN(C3COC3)C2)C1 (centres unmarked) [Compound 56, 5-(1-(3,3-difluorocyclopentyl)-5-(1-(oxetan-3-yl)azetidin-3-yl)-1H-pyrazol-3-yl)-3-(trifluoromethyl)-1H-pyrrolo[2,3-b]pyridine] | 0.013
5 | CC(C)n1nc(-c2cnc3[nH]cc(C#N)c3c2)cc1C1CN(C2COC2)C1 [Compound 59, 5-(1-isopropyl-5-(1-(oxetan-3-yl)aze-tidin-3-yl)-1H-pyrazol-3-yl)-1H-pyrro-lo[2,3-b]pyridine-3-carbonitrile] | 0.31
6 | CC(C)n1nc(-c2cnc(N)c(C(F)(F)F)c2)cc1C1CN(C2COC2)C1 [Compound 60, 5-(1-isopropyl-5-(1-(oxetan-3-yl)azetidin-3-yl)-1H-pyrazol-3-yl)-3-(trifluoromethyl)pyridin-2-amine] | 0.027
7 | Cc1c[nH]c2ncc(-c3cc(C4CCN(C5COC5)C4)n(C)n3)cc12 (centres unmarked) [Compound 63, 3-methyl-5-(1-methyl-5-(1-(oxetan-3-yl)pyrrolidin-3-yl)-1H-pyrazol-3-yl)-1H-pyrrolo[2,3-b]pyridine] | 0.034
8 | Cc1c[nH]c2ncc(-c3cc(C4CCN(C5COC5)C4)n(C(C)C)n3)cc12 (centres unmarked) [Compound 64, 5-(1-isopropyl-5-(1-(oxetan-3-yl)pyr-rolidin-3-yl)-1H-pyrazol-3-yl)-3-meth-yl-1H-pyrrolo[2,3-b]pyridine] | 0.0045
9 | CC(C)n1nc(-c2cnc(N)c(C(F)(F)F)c2)cc1C1CCN(C2COC2)C1 (centres unmarked) [Compound 67, 5-(1-isopropyl-5-(1-(oxetan-3-yl)pyr-rolidin-3-yl)-1H-pyrazol-3-yl)-3-(tri-fluoromethyl)pyridin-2-amine] | 0.03

Further molecules by falling Ki, results first:

Row | Ki [µM] | SMILES
10 | 0.64 | CC(C)n1nc(-c2cnc3[nH]cc(F)c3c2)cc1C1CN(C2COC2)C1 [Compound 58, 3-fluoro-5-(1-isopropyl-5-(1-(oxetan-3-yl)azetidin-3-yl)-1H-pyrazol-3-yl)-1H-pyrrolo[2,3-b]pyridine]
11 | 0.11 | CC(C)n1nc(-c2cnc3[nH]cc(F)c3c2)cc1C1CCN(C2COC2)C1 (centres unmarked) [Compound 66, 3-fluoro-5-(1-isopropyl-5-(1-(oxetan-3-yl)pyrrolidin-3-yl)-1H-pyrazol-3-yl)-1H-pyrrolo[2,3-b]pyridine]
12 | 0.056 | CC(C)n1nc(-c2cnc(N)c(C(F)(F)F)c2)cc1C1CCN(CC#N)CC1 [Compound 52, 2-(4-(3-(6-amino-5-(trifluoromethyl)pyridin-3-yl)-1-isopropyl-1H-pyrazol-5-yl)piperidin-1-yl)acetonitrile]
13 | 0.00048 | CC(C)n1nc(-c2cnc3[nH]cc(C(F)(F)F)c3c2)cc1C1CN(C2COC2)C1 [Compound 54, 5-(1-isopropyl-5-(1-(oxetan-3-yl)aze-tidin-3-yl)-1H-pyrazol-3-yl)-3-(trifluoro-methyl)-1H-pyrrolo[2,3-b]pyridine]
14 | 0.00017 | CC(C)n1nc(-c2cnc3[nH]cc(C(F)(F)F)c3c2)cc1C1CCN(CC#N)CC1 [Compound 51, 2-(4-(1-isopropyl-3-(3-(trifluorometh-yl)-1H-pyrrolo[2,3-b]pyridin-5-yl)-1H-pyrazol-5-yl)piperidin-1-yl)aceto-nitrile]

Reference: US10028942B2 (priority 2013, dated 2018)
